The text below walks through data of ChEMBL document CHEMBL3431459, “Roche carnitine palmitoyltransferase modulator screening data (supplementary data associated with the publication CHEMBL2216752)”.

Structures are written as SMILES. Values after ≈ are worked out from the molar mass of the structure shown. Some results are limits rather than exact numbers.

As usually defined, the IC50 is the midpoint of a concentration-inhibition curve. Low readings indicate higher potency, high ones lower potency. Broadly, the logD is the decadic logarithm of the distribution of all forms, ionised or not, between an organic phase and buffer at a given pH. Higher therefore signals a more lipophilic compound.

The target of series [1] is T1, Carnitine O-palmitoyltransferase 1, muscle isoform (Homo sapiens, UniProt Q92523).
T1 sequence (Q92523 whole entry): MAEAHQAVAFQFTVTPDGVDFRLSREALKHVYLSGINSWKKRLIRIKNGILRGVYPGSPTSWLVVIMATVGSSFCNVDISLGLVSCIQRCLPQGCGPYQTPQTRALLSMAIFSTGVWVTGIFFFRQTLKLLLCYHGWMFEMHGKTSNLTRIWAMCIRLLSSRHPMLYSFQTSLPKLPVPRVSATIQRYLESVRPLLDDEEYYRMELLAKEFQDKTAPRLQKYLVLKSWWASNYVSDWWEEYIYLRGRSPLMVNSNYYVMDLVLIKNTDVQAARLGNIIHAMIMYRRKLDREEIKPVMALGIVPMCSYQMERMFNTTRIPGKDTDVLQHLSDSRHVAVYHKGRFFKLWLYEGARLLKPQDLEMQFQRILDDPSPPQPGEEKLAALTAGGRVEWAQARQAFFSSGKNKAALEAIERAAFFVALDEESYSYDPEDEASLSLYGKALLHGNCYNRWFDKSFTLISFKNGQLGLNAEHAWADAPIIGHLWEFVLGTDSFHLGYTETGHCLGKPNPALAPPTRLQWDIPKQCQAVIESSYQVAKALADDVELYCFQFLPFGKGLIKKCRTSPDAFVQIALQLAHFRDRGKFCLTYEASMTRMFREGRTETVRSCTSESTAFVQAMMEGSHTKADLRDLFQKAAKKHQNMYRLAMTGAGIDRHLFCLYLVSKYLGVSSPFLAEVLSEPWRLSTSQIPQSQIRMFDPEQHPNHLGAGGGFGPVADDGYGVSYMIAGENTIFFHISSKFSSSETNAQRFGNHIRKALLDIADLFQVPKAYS
Kind of series: SUPPLEMENTARY: Inhibition of Carnitine palmitoyltransferase 1, muscle isoform. The arrangement: species or system Muscle tissue.

Series [2] deals with T2, Carnitine O-palmitoyltransferase 2, mitochondrial (Homo sapiens, UniProt P23786).
T2 sequence (P23786 whole entry): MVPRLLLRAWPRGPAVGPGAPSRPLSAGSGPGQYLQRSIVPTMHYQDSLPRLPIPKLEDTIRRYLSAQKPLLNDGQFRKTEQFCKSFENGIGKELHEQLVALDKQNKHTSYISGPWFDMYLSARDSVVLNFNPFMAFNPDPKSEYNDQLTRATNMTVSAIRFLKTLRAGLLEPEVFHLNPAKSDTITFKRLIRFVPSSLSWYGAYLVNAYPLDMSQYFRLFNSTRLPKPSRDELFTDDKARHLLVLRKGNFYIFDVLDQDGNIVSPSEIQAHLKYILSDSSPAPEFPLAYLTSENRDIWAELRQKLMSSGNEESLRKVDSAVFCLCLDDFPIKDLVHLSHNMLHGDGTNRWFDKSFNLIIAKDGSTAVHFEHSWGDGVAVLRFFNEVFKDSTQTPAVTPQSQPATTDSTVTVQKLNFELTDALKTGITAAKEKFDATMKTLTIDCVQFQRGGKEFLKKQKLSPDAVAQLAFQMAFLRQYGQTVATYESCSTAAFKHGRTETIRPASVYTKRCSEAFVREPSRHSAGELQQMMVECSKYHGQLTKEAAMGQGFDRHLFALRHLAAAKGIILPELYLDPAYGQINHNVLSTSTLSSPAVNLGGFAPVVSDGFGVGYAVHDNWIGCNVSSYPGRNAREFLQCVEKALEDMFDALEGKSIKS
Kind of series: (§1) SUPPLEMENTARY: Inhibition of Carnitine palmitoyltransferase 2.

In series [3] the target is T3, Carnitine O-palmitoyltransferase 2, mitochondrial (Rattus norvegicus, UniProt P18886).
T3 sequence (P18886 whole entry): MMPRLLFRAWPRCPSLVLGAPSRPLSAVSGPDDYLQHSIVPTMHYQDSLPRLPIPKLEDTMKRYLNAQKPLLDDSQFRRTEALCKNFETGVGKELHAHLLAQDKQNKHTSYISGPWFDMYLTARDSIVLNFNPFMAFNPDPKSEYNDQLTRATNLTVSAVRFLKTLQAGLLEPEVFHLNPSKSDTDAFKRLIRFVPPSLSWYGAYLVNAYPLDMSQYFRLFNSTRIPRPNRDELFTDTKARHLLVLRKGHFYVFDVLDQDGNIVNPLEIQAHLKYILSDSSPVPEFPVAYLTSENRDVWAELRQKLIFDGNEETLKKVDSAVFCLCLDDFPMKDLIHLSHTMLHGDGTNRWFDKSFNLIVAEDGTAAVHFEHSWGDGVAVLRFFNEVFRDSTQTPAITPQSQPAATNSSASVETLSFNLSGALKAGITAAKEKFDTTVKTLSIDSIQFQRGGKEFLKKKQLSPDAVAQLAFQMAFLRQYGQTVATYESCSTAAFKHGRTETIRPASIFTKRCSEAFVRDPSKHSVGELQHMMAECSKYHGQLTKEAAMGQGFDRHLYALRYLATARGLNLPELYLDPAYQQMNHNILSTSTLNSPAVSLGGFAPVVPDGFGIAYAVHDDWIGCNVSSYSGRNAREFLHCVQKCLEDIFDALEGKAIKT
The description is as §1.

The target in series [4] is T4, Carnitine O-palmitoyltransferase 1, liver isoform (Homo sapiens, UniProt P50416).
T4 sequence (P50416 whole entry): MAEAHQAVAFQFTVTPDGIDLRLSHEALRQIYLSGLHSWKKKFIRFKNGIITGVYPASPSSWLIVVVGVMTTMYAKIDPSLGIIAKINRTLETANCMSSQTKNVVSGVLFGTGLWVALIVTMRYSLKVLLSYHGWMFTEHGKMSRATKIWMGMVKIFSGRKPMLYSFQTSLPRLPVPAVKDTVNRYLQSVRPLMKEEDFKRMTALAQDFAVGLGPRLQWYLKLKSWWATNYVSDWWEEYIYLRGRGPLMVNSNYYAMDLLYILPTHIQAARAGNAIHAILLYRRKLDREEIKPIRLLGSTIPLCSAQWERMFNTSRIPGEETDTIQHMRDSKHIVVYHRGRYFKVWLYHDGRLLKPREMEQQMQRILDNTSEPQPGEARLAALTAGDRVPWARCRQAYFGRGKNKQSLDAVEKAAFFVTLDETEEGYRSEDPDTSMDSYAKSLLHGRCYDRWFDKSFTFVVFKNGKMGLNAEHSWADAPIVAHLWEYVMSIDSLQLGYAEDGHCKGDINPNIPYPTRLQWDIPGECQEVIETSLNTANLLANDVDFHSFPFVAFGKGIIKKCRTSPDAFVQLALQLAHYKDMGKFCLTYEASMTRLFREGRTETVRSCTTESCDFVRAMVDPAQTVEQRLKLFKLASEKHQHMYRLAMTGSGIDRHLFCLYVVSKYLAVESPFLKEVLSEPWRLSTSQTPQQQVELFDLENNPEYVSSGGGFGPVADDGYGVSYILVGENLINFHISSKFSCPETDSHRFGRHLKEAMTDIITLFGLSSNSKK
The experiment in a line: (§2) SUPPLEMENTARY: Inhibition of Carnitine palmitoyltransferase 1, liver isoform.

Series [5] concerns the target T5, Carnitine O-palmitoyltransferase 1, liver isoform (Rattus norvegicus, UniProt P32198).
T5 sequence (P32198 whole entry): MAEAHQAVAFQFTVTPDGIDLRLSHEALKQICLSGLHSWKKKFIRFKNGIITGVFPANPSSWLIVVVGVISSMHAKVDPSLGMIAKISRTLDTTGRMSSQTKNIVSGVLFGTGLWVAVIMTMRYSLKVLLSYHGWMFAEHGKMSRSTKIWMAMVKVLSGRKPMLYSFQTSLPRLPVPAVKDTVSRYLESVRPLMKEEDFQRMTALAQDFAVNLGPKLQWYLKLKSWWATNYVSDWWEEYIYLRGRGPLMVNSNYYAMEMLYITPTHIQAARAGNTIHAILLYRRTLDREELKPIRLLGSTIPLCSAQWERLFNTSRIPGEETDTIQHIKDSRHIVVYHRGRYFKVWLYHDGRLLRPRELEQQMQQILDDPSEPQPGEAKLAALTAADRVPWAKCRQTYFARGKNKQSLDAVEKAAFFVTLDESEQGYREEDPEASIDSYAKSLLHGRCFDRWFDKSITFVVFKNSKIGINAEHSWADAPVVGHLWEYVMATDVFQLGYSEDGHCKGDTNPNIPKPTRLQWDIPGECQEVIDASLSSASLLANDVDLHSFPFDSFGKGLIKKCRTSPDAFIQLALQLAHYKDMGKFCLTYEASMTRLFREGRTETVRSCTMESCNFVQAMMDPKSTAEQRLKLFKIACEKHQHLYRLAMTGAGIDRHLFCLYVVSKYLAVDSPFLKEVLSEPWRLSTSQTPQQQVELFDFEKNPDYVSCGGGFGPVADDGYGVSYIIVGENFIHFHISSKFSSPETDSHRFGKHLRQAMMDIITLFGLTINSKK
The description is as §2.

Series [6] can be described thus: SUPPLEMENTARY: Lyophilisation Solubility Assay (LYSA). The class given is physicochemical. The settings on record: read-out: Kinetic_solubility.
Series [7] in a line: SUPPLEMENTARY: Lipophilicity (log D) Determination by high-throughput shake-flask. The class given is physicochemical. The settings on record: octanol/water.

Consider `COc1ccc(Cl)cc1S(=O)(=O)c1cn(CS(C)(=O)=O)c2ccc(C(=O)Nc3ccccc3)cc12`, for which the IC50 in series [1] is above 100000 nM; in series [2] it was above 100000 nM; in series [3], above 100000 nM; in series [4] it was 111 nM; in series [5] it was 61 nM. The solubility kinetic in series [6] was below 1 µg/mL. The same compound gave a logD in series [7] above 3.
For `O=C(Nc1ccc(C(=O)O)c(F)c1)c1ccc2c(c1)N(S(=O)(=O)c1ccc(Cl)c(Cl)c1)CC2`, the IC50 in series [1] was 4070 nM; in series [2], 11500 nM; in series [3], 22500 nM; in series [4], 102 nM; in series [5], 69.5 nM. The solubility kinetic in series [6] is 11 µg/mL (≈ 21.6 µM). For the same compound, in series [7], the logD worked out at 2.84.
`COc1ccc(Cl)cc1-c1csc([C@H]2CCCCN2C(=O)COc2ccccc2)n1`: the half-maximal inhibitory concentration (IC50) is above 100000 nM in series [1], above 100000 nM in series [2], above 100000 nM in series [3] and 761 nM in series [5]. Besides, in series [6], the solubility kinetic is below 1 µg/mL. The logD in series [7] is above 4.
In the case of `COc1ccc(Cl)cc1S(=O)(=O)c1c[nH]c2ccc(C(=O)Nc3ccc(CC(=O)O)cc3)cc12`, the IC50 in series [1] was 235 nM; in series [2], above 100000 nM; in series [3], above 100000 nM; in series [4], 21.9 nM; in series [5] it was 23.4 nM. Besides, in series [6], the solubility kinetic was determined as 41 µg/mL (≈ 82.2 µM). The compound also showed a logD in series [7] of 0.17.
With `COc1ccc(Cl)cc1S(=O)(=O)N1CC[S+]([O-])c2ccc(C(=O)Nc3ccc(CC(=O)O)cc3)cc21` (configuration not stated), the IC50 was 259 nM in series [1]; above 100000 nM in series [2]; above 100000 nM in series [3]; 220 nM in series [4]; 225 nM in series [5]. Moreover, the solubility kinetic in series [6] turned out to be 456 µg/mL (≈ 831 µM). In series [7], this compound showed a log distribution coefficient (logD) of -0.86.
On to `COc1ccc(Cl)cc1S(=O)(=O)c1cn(CSC)c2ccc(C(=O)Nc3ccccc3)cc12`, for which the IC50 is above 100000 nM in series [1]; above 100000 nM in series [2]; above 100000 nM in series [3]; 188 nM in series [4]; 25.2 nM in series [5]. In addition, in series [6], the solubility kinetic is below 1 µg/mL. The compound further returned a logD in series [7] above 3.
For `COc1ccc(Cl)cc1S(=O)(=O)c1c[nH]c2ccc(C(=O)Nc3ccc(C(=O)O)cc3)cc12`, the IC50 in series [1] stood at 528 nM; in series [2], 1960 nM; in series [3], 5120 nM; in series [4], 17.5 nM; in series [5] it was 20.3 nM. Moreover, the solubility kinetic in series [6] is 23 µg/mL (≈ 47.4 µM). The compound further registered a pH-dependent lipophilicity (logD) in series [7] of 0.84.
For the compound `COc1ccc(Cl)cc1S(=O)(=O)c1c[nH]c2ccc(C(=O)Nc3nc(CC(=O)O)cs3)cc12`, the IC50 in series [1] is 202 nM; in series [2], above 100000 nM; in series [3] it was above 100000 nM; in series [4] it was 39.3 nM; in series [5], 18.9 nM. The solubility kinetic in series [6] worked out at 66 µg/mL (≈ 130 µM). Further, the logD in series [7] was -0.02.
For the compound `COc1ccc(Cl)cc1S(=O)(=O)c1cn(CC(=O)O)c2ccc(C(=O)Nc3ccccc3)cc12`, the IC50 is 11100 nM in series [1]; above 100000 nM in series [2]; above 100000 nM in series [3]; 36.1 nM in series [4]; 7.2 nM in series [5]. Moreover, the solubility kinetic in series [6] was above 557 µg/mL. The compound also showed a logD in series [7] of -0.23.
For the compound `COc1ccc(Cl)cc1S(=O)(=O)c1nn(CC(=O)O)c2ccc(C(=O)Nc3ccccc3)cc12`, the IC50 is 39300 nM in series [1]; above 100000 nM in series [2]; above 100000 nM in series [3]; 38.4 nM in series [4]; 24.4 nM in series [5]. Further, the solubility kinetic in series [6] was determined as 374 µg/mL (≈ 748 µM). This compound yielded a logD in series [7] of 0.31.
Turning to `O=C(COc1ccccc1)N1CCCC[C@@H]1c1csc(-c2n[nH]c3ccccc23)n1`, the IC50 came to 77300 nM in series [1], 6230 nM in series [2], 56400 nM in series [3] and 129 nM in series [5]. For the same compound, the solubility kinetic in series [6] is below 1 µg/mL. Also, in series [7], the logD was above 3.
As for `COc1ccc(Cl)cc1S(=O)(=O)c1nn(C)c2ccc(C(=O)Nc3ccccc3)cc12`, the IC50 is above 100000 nM in series [1]; above 100000 nM in series [2]; above 100000 nM in series [3]; 84.5 nM in series [4]; 29.2 nM in series [5]. Further, in series [6], the solubility kinetic is below 1 µg/mL. In series [7], this compound displayed a logD above 3.
